Assay results as given in ChEMBL document CHEMBL1201862, “PubChem BioAssay data set” (2004).
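A five-concentration, 48-hour dose response in 96-well plates underlies each endpoint, interpolated linearly between surrounding concentrations. GI50 = concentration required for 50% inhibition of growth.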 Active and inactive are the calls of the source. No stated cut-off is given here; in the data, active = GI50 up to about 1.1 µM and inactive = higher.

How the values were obtained:
Test in all cases: growth of human tumour cells (NCI), 48 h
SNB-78 = system: SNB-78
OVCAR-5 = system: OVCAR-5
DU-145 = system: DU-145
MDA-MB-435 = system: MDA-MB-435
MCF7 = system: MCF7
OVCAR-4 = system: OVCAR-4
Hs-578T = system: Hs-578T
BT-549 = system: BT-549
RXF 631 = system: RXF 631
SK-MEL-2 = system: SK-MEL-2
HCC 2998 = system: HCC 2998
HOP-18 = system: HOP-18
PC-3 = system: PC-3
MDA-MB-231 = system: MDA-MB-231
SNB-75 = system: SNB-75
NCI-H226 = system: NCI-H226
HOP-92 = system: HOP-92
T47D = system: T47D
DMS-114 = system: DMS-114
CAKI-1 = system: CAKI-1
XF498 = system: XF498
EKVX = system: EKVX
SK-MEL-5 = system: SK-MEL-5
NCI/ADR-RES = system: NCI/ADR-RES
MDA-N = system: MDA-N
A498 = system: A498
HCT-116 = system: HCT-116
SF-295 = system: SF-295
SW-620 = system: SW-620
IGROV-1 = system: IGROV-1
DLD-1 = system: DLD-1
M19-MEL = system: M19-MEL
TK-10 = system: TK-10
SR = system: SR
LOX IMVI = system: LOX IMVI
MOLT-4 = system: MOLT-4
NCI-H23 = system: NCI-H23
ACHN = system: ACHN
SF-268 = system: SF-268
Malme-3M = system: Malme-3M
KM12 = system: KM12
NCI-H522 = system: NCI-H522
UACC-257 = system: UACC-257
SK-MEL-28 = system: SK-MEL-28
786-0 = system: 786-0
A549 = system: A549
SN12C = system: SN12C
RPMI-8226 = system: RPMI-8226
HCT-15 = system: HCT-15
NCI-H460 = system: NCI-H460
U-251 = system: U-251
UO-31 = system: UO-31
SNB-19 = system: SNB-19
RXF 393 = system: RXF 393
HT-29 = system: HT-29
COLO 205 = system: COLO 205
HL-60 = system: HL-60
LXFL 529 = system: LXFL 529
OVCAR-8 = system: OVCAR-8
SF-539 = system: SF-539
K562 = system: K562
KM-20L2 = system: KM-20L2
HOP-62 = system: HOP-62

With CC(C)=CCC1=C(O)C(=O)c2ccccc2C1=O [LAPACHOL] the GI50 (SNB-78) was > 100 µM (inactive), the GI50 (OVCAR-5) was > 100 µM (inactive) and the GI50 (DU-145) was 36.9 µM (inactive). The GI50 (MDA-MB-435) was 18.5 µM (inactive), the GI50 (MCF7) was 24.4 µM (inactive) and the GI50 (OVCAR-4) was 33.7 µM (inactive). The GI50 (Hs-578T) was 34.8 µM (inactive), the GI50 (BT-549) was 51.8 µM (inactive) and the GI50 (RXF 631) was 22.2 µM (inactive). For the same molecule, the GI50 (SK-MEL-2) was 35.5 µM (inactive), the GI50 (HCC 2998) was 86.3 µM (inactive) and the GI50 (HOP-18) was 15.2 µM (inactive). The GI50 (PC-3) was 2.92 µM (inactive), the GI50 (MDA-MB-231) was 8.53 µM (inactive) and the GI50 (SNB-75) was 57.1 µM (inactive). For the same molecule, the GI50 (NCI-H226) was 53.8 µM (inactive), the GI50 (HOP-92) was 79.6 µM (inactive) and the GI50 (T47D) was 61.4 µM (inactive). For the same molecule, the GI50 (DMS-114) was 60.3 µM (inactive), the GI50 (CAKI-1) was 55 µM (inactive) and the GI50 (XF498) was 42.4 µM (inactive). For the same molecule, the GI50 (EKVX) was 78.7 µM (inactive), the GI50 (SK-MEL-5) was 11.7 µM (inactive) and the GI50 (NCI/ADR-RES) was 32.3 µM (inactive). The GI50 (MDA-N) was 17.4 µM (inactive) and the GI50 (A498) was 60.4 µM (inactive).
In the case of O=C1CCC2(c3ccc(Cl)cc3)Nc3ccccc3N12 (configuration not stated), the GI50 (HCT-116) is reported as 57 µM (inactive), the GI50 (SF-295) is reported as > 100 µM (inactive) and the GI50 (SW-620) is reported as > 100 µM (inactive). For the same molecule, the GI50 (IGROV-1) was > 100 µM (inactive), the GI50 (SNB-78) was > 100 µM (inactive) and the GI50 (OVCAR-5) was > 100 µM (inactive). For the same molecule, the GI50 (DLD-1) was 71 µM (inactive), the GI50 (M19-MEL) was 69 µM (inactive) and the GI50 (TK-10) was > 100 µM (inactive). For the same molecule, the GI50 (SR) was 34.4 µM (inactive), the GI50 (LOX IMVI) was > 100 µM (inactive) and the GI50 (MOLT-4) was 30.3 µM (inactive). The GI50 (NCI-H23) was 42.6 µM (inactive), the GI50 (ACHN) was 60.4 µM (inactive) and the GI50 (OVCAR-4) was 75 µM (inactive). For the same molecule, the GI50 (SF-268) was 83.9 µM (inactive), the GI50 (Malme-3M) was > 100 µM (inactive) and the GI50 (KM12) was > 100 µM (inactive). The GI50 (NCI-H522) was 55.5 µM (inactive), the GI50 (UACC-257) was > 100 µM (inactive) and the GI50 (SK-MEL-28) was > 100 µM (inactive). The GI50 (786-0) was > 100 µM (inactive), the GI50 (A549) was 52.6 µM (inactive) and the GI50 (RXF 631) was > 100 µM (inactive). For the same molecule, the GI50 (SN12C) was > 100 µM (inactive), the GI50 (SK-MEL-2) was > 100 µM (inactive) and the GI50 (HCC 2998) was > 100 µM (inactive). The GI50 (HOP-18) was 50.2 µM (inactive), the GI50 (RPMI-8226) was 53.7 µM (inactive) and the GI50 (HCT-15) was 97.1 µM. For the same molecule, the GI50 (NCI-H460) was > 100 µM (inactive), the GI50 (SNB-75) was 19.3 µM (inactive) and the GI50 (NCI-H226) was 67.9 µM (inactive). For the same molecule, the GI50 (HOP-92) was 19.9 µM (inactive), the GI50 (U-251) was > 100 µM (inactive) and the GI50 (UO-31) was 49.7 µM (inactive). For the same molecule, the GI50 (SNB-19) was > 100 µM (inactive), the GI50 (RXF 393) was 48.3 µM (inactive) and the GI50 (HT-29) was > 100 µM (inactive). For the same molecule, the GI50 (COLO 205) was > 100 µM (inactive), the GI50 (DMS-114) was 45.2 µM (inactive) and the GI50 (XF498) was 77.1 µM (inactive). For the same molecule, the GI50 (HL-60) was 35.5 µM (inactive), the GI50 (EKVX) was > 100 µM (inactive) and the GI50 (LXFL 529) was 47 µM (inactive). The GI50 (OVCAR-8) was > 100 µM (inactive), the GI50 (SF-539) was > 100 µM (inactive) and the GI50 (K562) was 54.5 µM (inactive). For the same molecule, the GI50 (KM-20L2) was > 100 µM (inactive), the GI50 (A498) was > 100 µM (inactive) and the GI50 (HOP-62) was > 100 µM (inactive).
